Data published in BigSolDB 2.1.

Cc1cnc(NC(=O)C2=C(O)c3ccccc3S(=O)(=O)N2C)s1
solubility (mole fraction) (in transcutol, 293.15 K): 0.0012 | solubility (mole fraction) (in transcutol, 298.15 K): 0.0013 | solubility (mole fraction) (in transcutol, 303.15 K): 0.0014 | solubility (mole fraction) (in transcutol, 308.15 K): 0.00151 | solubility (mole fraction) (in transcutol, 313.15 K): 0.00165 | solubility (mole fraction) (in water, 293.15 K): 1.09e-06 | solubility (mole fraction) (in water, 298.15 K): 1.14e-06 | solubility (mole fraction) (in water, 303.15 K): 1.19e-06 | solubility (mole fraction) (in water, 308.15 K): 1.26e-06 | solubility (mole fraction) (in water, 313.15 K): 1.33e-06
